*1 amine or outer side, *2 acyl side, *3 side chain or, on linkers, in order; H or OH if unused. Where a SMILES comes first, the peptide text is derived from it. [ ]: non-standard residue; d: D form. d(isoGln) = NC(=O)[C@@H](CCC(=O)[*:2])N[*:1]
Legend:
[1] = biological target: T1, PcsBCHAP (CHAP domain of PcsB) (Streptococcus pneumoniae, UniProt A0A0H2ZQ76); test: biochemical; settings: read-out: kd (1/s)
T1 sequence (A0A0H2ZQ76 274-392): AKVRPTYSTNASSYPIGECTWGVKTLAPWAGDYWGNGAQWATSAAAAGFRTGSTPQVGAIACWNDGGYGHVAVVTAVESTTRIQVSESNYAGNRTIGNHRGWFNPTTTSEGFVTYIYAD

[2] = biological target: T1, PcsBCHAP (CHAP domain of PcsB); test: biochemical; settings: read-out: ka (1/Ms)
[3] = biological target: T1, PcsBCHAP (CHAP domain of PcsB); test: SPR; format: binding

| Structure (SMILES) | koff [1] | kon [2] | Kd [3] |
| --- | --- | --- | --- |
| C[C@H](N)C(=O)N[C@H](CCC(=O)N[C@@H](CCCCN)C(=O)N[C@H](C)C(=O)N[C@H](C)C(=O)O)C(=O)O [AEKADAD] | 0.036 s⁻¹ | 33300 M⁻¹ s⁻¹ |  |
| C[C@H](N)C(=O)N[C@H](CCC(=O)N[C@@H](CCCCN)C(=O)N[C@H](C)C(=O)N[C@H](C)C(=O)O)C(N)=O [AiQKADAD] (H-A[d(isoGln)]K[dA][dA]-OH) | 0.00502 s⁻¹ | 99600 M⁻¹ s⁻¹ |  |
| CC(=O)N[C@H]1C(O)O[C@H](CO)[C@@H](O)[C@@H]1O[C@H](C)C(=O)N[C@@H](C)C(=O)N[C@H](CCC(=O)N[C@@H](CCC[C@@H](N)C(=O)O)C(=O)O)C(=O)O (stereo partly shown) [M-TriDAP] | 0.00394 s⁻¹ | 6280 M⁻¹ s⁻¹ |  |

Second part, the molecule after the results:

| koff [1] | kon [2] | Kd [3] | Structure (SMILES) |
| --- | --- | --- | --- |
| 0.0117 s⁻¹ | 98200 M⁻¹ s⁻¹ |  | CC(=O)N[C@H]1C(O)O[C@H](CO)[C@@H](O)[C@@H]1O[C@H](C)C(=O)N[C@@H](C)C(=O)N[C@H](CCC(=O)N[C@@H](CCCCN)C(=O)O)C(N)=O (stereo partly shown) [M-TriLYS] |
| 0.017 s⁻¹ | 158000 M⁻¹ s⁻¹ |  | N[C@H](CCC(=O)N[C@H](CCC[C@H](N)C(=O)O)C(=O)O)C(=O)O [iE-DAP] |
| 0.00956 s⁻¹ | 102000 M⁻¹ s⁻¹ | 94.1 nM | NCCCC[C@H](NC(=O)CC[C@@H](N)C(=O)O)C(=O)O [iE-Lys] |

Source: publication doi:10.1101/2025.05.23.655736v2 (biorxiv, 2025)
